Molecular target: T1, Endothelial lipase (Homo sapiens, UniProt Q9Y5X9)
T1 construct: made in house; host or cells: CHO, HEK293 (recombinant cell lines; concentrated conditioned medium used as enzyme solution)
T1 sequence (Q9Y5X9 21-500): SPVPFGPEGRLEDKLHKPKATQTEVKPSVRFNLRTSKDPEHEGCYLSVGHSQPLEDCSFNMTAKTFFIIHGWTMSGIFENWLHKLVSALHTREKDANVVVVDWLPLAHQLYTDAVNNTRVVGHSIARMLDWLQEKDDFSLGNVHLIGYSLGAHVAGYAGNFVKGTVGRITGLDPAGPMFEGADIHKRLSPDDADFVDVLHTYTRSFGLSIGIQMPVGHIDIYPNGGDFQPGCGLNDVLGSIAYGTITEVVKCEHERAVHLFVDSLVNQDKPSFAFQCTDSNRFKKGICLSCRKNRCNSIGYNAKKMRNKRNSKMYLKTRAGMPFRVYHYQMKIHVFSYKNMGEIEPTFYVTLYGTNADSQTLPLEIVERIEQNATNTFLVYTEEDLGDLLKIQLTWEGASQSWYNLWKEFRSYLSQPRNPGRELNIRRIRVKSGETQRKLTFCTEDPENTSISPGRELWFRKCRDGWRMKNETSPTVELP
Test: EL inhibition assay
Type: biochemical
Conditions: values marked * are IC50 values of a mixture of the indicated regioisomers; 37° C., 60 minutes, Bodipy phospholipid substrate
Description: The activity of the compounds of the invention of the formula I was tested in the following enzyme assay system: […]
Endothelial lipase is released as secretory protein in high concentration into cell culture medium (conditioned medium) by recombinant cell lines (CHO, HEK293). This is employed as enzyme solution after concentration.
The phospholipase-specific substrate 1,2-bis(4,4-difluoro-5,7-dimethyl-4-bora-3a,4a-diaza-s-indacene-3-undecanoyl)-sn-glycero-3-phosphocholine, (manufacturer Molecular Probes) is used to characterize the enzymatic activity of endothelial lipase and the effect of inhibitors. Hydrolysis of the A1 ester linkage of this phospholipid by the enzyme liberates the fluorescent dye Bodipy which can be detected after separation by thin-layer chromatography on an HPTLC plate (silica gel 60, Merck) or directly in the reaction vessel by measuring the fluorescence.
The substrate solution is prepared by taking up 100 μg of 1,2-bis(4,4-difluoro-5,7-dimethyl-4-bora-3a,4a-diaza-s-indacene-3-undecanoyl)-sn-glycero-3-phospho-choline (manufacturer Molecular Probes), 2.4 mg of tripalmitin (Sigma) and 7.9 mg of DOP—choline (1,2-dioleoyl-sn-glycero-3-phosphocholine) in 393 μl of chloroform and then transferring 157 μl into a fresh reaction vessel. After evaporation of the solvent, the lipid mixture is dissolved in 4 ml of 200 mM TRIS-HCl, 150 mM sodium chloride, pH=7.4, by sonication twice. The subsequent enzymic reaction takes place at 37° C. for 60 minutes. For this purpose, 45 μl of the substrate solution are incubated with 1 μl of inhibitor of appropriate concentration (dissolved in DMSO, pure DMSO solution is used as control) and 5 μl of enzyme solution (conditioned medium). Then 3 μl of the assay mixture are loaded onto an HPTLC plate (silica gel 60, Merck), and the liberated fluorescent dye is separated for detection with an eluent (diethyl ether:petroleum benzene:acetic acid [78:22:1]). After evaporation of the eluent, the plate is read in a fluorescence scanner. An increased release of the fluorescent dye in the uninhibited reaction is to be observed as a measure of the enzymic activity.
The enzymatic activity is reduced as a function of the inhibitor concentration used, and the inhibitor concentration at which a half-maximum enzymic activity is observed is called IC50.

| Compound | IC50 |
| --- | --- |
| Cc1ccsc1CNC(=O)n1nnc2ccccc21 [Example 9] | 0.08 µM |
| Cc1cccc(CNC(=O)n2nnc3ccccc32)c1 [Example 1] | 0.02 µM |
| C[C@@H](NC(=O)n1nnc2ccccc21)c1ccccc1 [Example 23] | 0.031 µM |
| C[C@H](NC(=O)n1nnc2ccccc21)c1ccccc1 [Example 36] | 0.71 µM |
| O=C(NCc1ccc(Cl)cc1)n1nnc2ccccc21 [Example 28] | 0.44 µM |
| O=C(NCc1ccc(-c2cccs2)s1)n1nnc2ccccc21 [Example 15] | 0.52 µM |
| N#Cc1ccc2sc(CNC(=O)n3nnc4ccccc43)cc2c1 [Example 10] | 0.51 µM |

From patent US7897625B2, “Carbamoylbenzotriazole derivatives as inhibitors of lipases and phospholipases” (Sanofi-Aventis, priority 2005, dated 2011)
